Measurements reported in US20260285816A1, “Piperazinyl-Modified Quinazolinyl-Aryl Urea Derivative, And Preparation Method And Use Thereof” (Guangxi Normal University, priority 2025, published 2026).
Entries after “also recorded” stand apart in the source; their conditions may differ. Like-named read-outs stand apart in the source and are kept apart here.

What was measured:
J82 cells = experiment: CCK-8 anti-proliferative assay, J82; format: cell-based, human; conditions: Homo sapiens, J82
Procedure, shortened: (§1)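 Anti-proliferative effect is measured by CCK-8 after compound exposure at nine final concentrations between 1 and 30 μM. Treatment starts once seeded cells (5,000/well) reach 70% confluency at 37° C., 5% CO2.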

UM-UC-3 cells = experiment: CCK-8 anti-proliferative assay, UM-UC-3; format: cell-based, human; conditions: Homo sapiens, UMUC3, co-incubated 48 h, read-out: Anti-proliferative activity (IC50 ± standard deviation) UM-UC-3
Procedure, shortened: as §1

T24 cells = experiment: CCK-8 anti-proliferative assay, T24; format: cell-based, human; conditions: Homo sapiens, T-24, co-incubated 48 h, read-out: Anti-proliferative activity (IC50 ± standard deviation) T24
Procedure, shortened: (§2)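 Cells seeded at 5,000/well were grown at 37° C. under 5% CO2 to 70% confluency, then exposed in triplicate to 1–30 μM compound (1, 2, 4, 6, 8, 12, 16, 24, 30 μM) for designated durations. CCK-8 was added for 1–4 h, OD read at 450 nm, and IC50 derived from inhibition versus control.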

5637 cells = experiment: CCK-8 anti-proliferative assay, 5637; format: cell-based, human; conditions: Homo sapiens
Procedure, shortened: as §1

143B cells = experiment: CCK-8 anti-proliferative assay, 143B; format: cell-based, human; conditions: Homo sapiens, 143B
Procedure, shortened: as §2

MG-63 cells = experiment: CCK-8 anti-proliferative assay, MG-63; format: cell-based, human; conditions: Homo sapiens, MG-63
Procedure, shortened: as §2

BxPC-3 cells = experiment: CCK-8 anti-proliferative assay, BxPC-3; format: cell-based, human; conditions: for IC50: Homo sapiens, BXPC-3, co-incubated 48 h, read-out: Anti-proliferative activity (IC50 ± standard deviation) BxPC-3
Procedure, shortened: as §2

PANC-1 cells = experiment: CCK-8 anti-proliferative assay, PANC-1; format: cell-based, human; conditions: for IC50: Homo sapiens, PANC-1, co-incubated 48 h, read-out: Anti-proliferative activity (IC50 ± standard deviation) PANC-1
Procedure, shortened: as §2

HeLa cells = experiment: CCK-8 anti-proliferative assay, HeLa; format: cell-based, human; conditions: for IC50: Homo sapiens, HeLa, co-incubated 48 h, read-out: Anti-proliferative activity (IC50 ± standard deviation) HeLa
Procedure, shortened: as §1

MCF-7 cells = experiment: CCK-8 anti-proliferative assay, MCF-7; format: cell-based, human; conditions: for IC50: Homo sapiens, MCF7, co-incubated 48 h, read-out: Anti-proliferative activity (IC50 ± standard deviation) MCF-7
Procedure, shortened: as §1

A549 cells = experiment: CCK-8 anti-proliferative assay, A549; format: cell-based, human; conditions: for IC50: Homo sapiens, A549, co-incubated 48 h, read-out: Anti-proliferative activity (IC50 ± standard deviation) A549
Procedure, shortened: as §1

Hep G2 cells = experiment: CCK-8 anti-proliferative assay, Hep G2; format: cell-based, human; conditions: Homo sapiens, HepG2, co-incubated 48 h, read-out: Anti-proliferative activity (IC50 ± standard deviation) Hep G2
Procedure, shortened: as §2

SK-OV-3 cells = experiment: CCK-8 anti-proliferative assay, SK-OV-3; format: cell-based, human; conditions: Homo sapiens, SK-OV-3, co-incubated 48 h, read-out: Anti-proliferative activity (IC50 ± standard deviation) SK-OV-3
Procedure, shortened: as §1

[1] = system: immortalized ureteral epithelial cells (SV-HUC-1); experiment: CCK-8 anti-proliferative assay, normal cells SV-HUC-1; format: cell-based, human; conditions: Homo sapiens, SV-HUC1, normal cells, co-incubated 48 h, read-out: Anti-proliferative activity (IC50 ± standard deviation) SV-HUC-1
Procedure, shortened: as §1

[2] = system: embryonic lung fibroblasts (WI-38); experiment: CCK-8 anti-proliferative assay, normal cells WI-38; format: cell-based, human; conditions: Homo sapiens, read-out: Anti-proliferative activity (IC50 ± standard deviation) WI-38
Procedure, shortened: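 Growth inhibition was measured by CCK-8 in human cells seeded at 5,000 per well and treated at 70% confluency. Compound exposure spanned 1, 2, 4, 6, 8, 12, 16, 24 and 30 μM for designated durations at 37° C. Percent inhibition against vehicle control at OD 450 nm yielded median inhibitory concentrations.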

[3] = format: physicochemical
Protocol: 0.9% normal saline was added thereto to obtain a solution, which was sterilized under UV light for 30 min. Administration volume was 10 mL/kg per mouse. […]
A resulting mixture was sterilized under UV light for 30 min. Administration volume was 10 mL/kg per mouse.

[4] = read-out: IC50 values, osteosarcoma cells 143B
[5] = read-out: IC50 values, osteosarcoma cells MG-63

SMILES: COc1cc2ncnc(NCc3cccc(NC(=O)Nc4ccc(C(C)(C)C)cc4)c3)c2cc1OCCCCCCN1CCN(CCN2CCOCC2)CC1 [Compound 8-1j, N-(3-(((7-methoxy-6-((6-(4-(2-morpholinoethyl)piperazin-1-yl)hexyl)oxy)quinazolin-4-yl)amino)methyl)phenyl)-N′-(4-tert-butylphenyl)urea]
- IC50 (J82 cells; Table 6, co-incubated 48 h, read-out: Anti-proliferative activity (IC50 ± standard deviation) J82): 2.98 ± 0.27 µM
- IC50 (J82 cells; read-out: IC50 values against J82 cells): 2.98 ± 0.27 µM
- IC50 (UM-UC-3 cells; Table 6): 3.53 ± 0.39 µM
- IC50 (T24 cells; Table 6): 4.57 ± 0.42 µM
- IC50 (5637 cells; Table 6, co-incubated 48 h, read-out: Anti-proliferative activity (IC50 ± standard deviation) 5637): 3.29 ± 0.27 µM
- IC50 (5637 cells; read-out: IC50 values against 5637 cells): 3.29 ± 0.27 µM
- IC50 (143B cells; Table 7, co-incubated 48 h, read-out: Anti-proliferative activity (IC50 ± standard deviation) 143B): 3.43 ± 0.25 µM
- IC50 (143B cells; [4]): < 5 µM
- IC50 (MG-63 cells; Table 7, co-incubated 48 h, read-out: Anti-proliferative activity (IC50 ± standard deviation) MG-63): 4.17 ± 0.38 µM
- IC50 (MG-63 cells; [5]): < 5 µM
- Sensitivity of BxPC-3 / anti-proliferative activity against BxPC-3, in words (BxPC-3 cells): sensitive; also recorded: less sensitive
- IC50 (BxPC-3 cells; Table 7): 6.53 ± 0.48 µM
- IC50 (PANC-1 cells; Table 7): 7.72 ± 0.66 µM
- IC50 (HeLa cells; Table 8): 4.33 ± 0.45 µM
- Sensitivity of MCF-7, in words (MCF-7 cells): sensitive
- IC50 (MCF-7 cells; Table 8): 3.25 ± 0.35 µM
- IC50 (A549 cells; Table 8): 4.39 ± 0.34 µM
- IC50 (Hep G2 cells; Table 8): 3.83 ± 0.36 µM
- IC50 (SK-OV-3 cells; Table 9): 5.04 ± 0.32 µM
- IC50 ([1]; Table 9): 8.03 ± 0.41 µM
- IC50 ([2]; WI-38, Table 9, co-incubated 48 h): 10.3 ± 0.36 µM
- Solubility in co-solvents (PEG400+normal saline, PEG400+PBS, PEG400+5% dextrose injection) [3]: superior solubility
- Solubility in the PEG400-0.9% normal saline mixture ([3]; PEG400:0.9% normal saline 3:1): desirable solubility

SMILES: CCc1cccc(CC)c1NC(=O)Nc1cccc(CNc2ncnc3cc(OC)c(OCCCCCCN4CCC(CN5CCN(c6ccccn6)CC5)CC4)cc23)c1 [Compound 8-2h, N-(3-(((7-methoxy-6-((6-(4-((4-(pyridin-2-yl)piperazin-1-yl)methyl)piperidin-1-yl)hexyl)oxy)quinazolin-4-yl)amino)methyl)phenyl)-N′-(2,6-diethylphenyl)urea]
- IC50 (J82 cells; Table 10, co-incubated 48 h, read-out: Anti-proliferative activity (IC50 ± standard deviation) J82): 4.42 ± 0.29 µM
- IC50 (UM-UC-3 cells; Table 10): 5.09 ± 0.35 µM
- IC50 (T24 cells; Table 10): 4.21 ± 0.36 µM
- IC50 (5637 cells; Table 10, co-incubated 48 h, read-out: Anti-proliferative activity (IC50 ± standard deviation) 5637): 4.18 ± 0.22 µM
- IC50 (143B cells; Table 11, co-incubated 48 h, read-out: Anti-proliferative activity (IC50 ± standard deviation) 143B): 4.91 ± 0.36 µM
- IC50 (143B cells; [4]): < 5 µM
- IC50 (MG-63 cells; Table 11, co-incubated 48 h, read-out: Anti-proliferative activity (IC50 ± standard deviation) MG-63): 3.97 ± 0.26 µM
- IC50 (MG-63 cells; [5]): < 5 µM
- Sensitivity of BxPC-3 / anti-proliferative activity against BxPC-3, in words (BxPC-3 cells): significantly stronger anti-proliferative activity against BxPC-3 than positive control Sora; also recorded: heightened sensitivity; also recorded: very sensitive; also recorded: highly sensitive
- IC50 (BxPC-3 cells; Table 11): 3.66 ± 0.24 µM
- Sensitivity of PANC-1, in words (PANC-1 cells): sensitive; also recorded: heightened sensitivity
- IC50 (PANC-1 cells; Table 11): 4.88 ± 0.29 µM
- Sensitivity of HeLa, in words (HeLa cells): sensitive
- IC50 (HeLa cells; Table 12): 3.29 ± 0.18 µM
- IC50 (MCF-7 cells; Table 12): 5.38 ± 0.35 µM
- Activity against A549 versus the 8-1 to 8-23 series, in words (A549 cells): significantly enhanced activity against A549
- IC50 (A549 cells; Table 13): 3.41 ± 0.26 µM
- IC50 (Hep G2 cells; Table 12): 4.66 ± 0.38 µM
- IC50 (SK-OV-3 cells; Table 12): 6.12 ± 0.55 µM
- IC50 ([1]; Table 13): 9.53 ± 0.83 µM
- IC50 ([2]; WI-38, Table 13, co-incubated 48 h): 9.58 ± 0.43 µM
- Solubility in co-solvents (PEG400+normal saline, PEG400+PBS, PEG400+5% dextrose injection) [3]: superior solubility
